What was measured:
PRAK = target: T1, PRAK (Homo sapiens, UniProt Q8IW41); experiment: Dundee kinase panel; format: biochemical; conditions: for remaining activity at 1 µM: read-out: residual activity
T1 construct: lines 1-140) and Reaction Biology
T1 sequence (Q8IW41 1-473): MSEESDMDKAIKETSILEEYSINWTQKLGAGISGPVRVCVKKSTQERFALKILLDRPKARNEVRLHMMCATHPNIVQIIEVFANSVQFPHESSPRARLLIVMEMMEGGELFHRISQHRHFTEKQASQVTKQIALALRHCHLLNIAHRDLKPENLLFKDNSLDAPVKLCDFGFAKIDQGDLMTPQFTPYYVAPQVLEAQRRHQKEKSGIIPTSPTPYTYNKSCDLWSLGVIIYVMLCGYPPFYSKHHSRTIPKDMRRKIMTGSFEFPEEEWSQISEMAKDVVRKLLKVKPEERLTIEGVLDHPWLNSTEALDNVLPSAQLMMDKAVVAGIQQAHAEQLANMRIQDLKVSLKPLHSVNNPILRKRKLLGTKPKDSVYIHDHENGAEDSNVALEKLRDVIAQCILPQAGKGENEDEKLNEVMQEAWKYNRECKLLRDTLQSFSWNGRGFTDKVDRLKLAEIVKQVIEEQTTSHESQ
Description: Compounds were screened at 1 μM. For key hits, pIC50 values were then determined by HTRF as above. […] Stability in mouse and human liver microsomes was determined by Cyprotex.

MINK1/MAP4K6 = MINK1/MAP4K6 (Homo sapiens, UniProt Q8N4C8); experiment: HTRF Transcreener ADP kinase assay; format: biochemical
MINK1/MAP4K6, sequence (Q8N4C8 whole entry): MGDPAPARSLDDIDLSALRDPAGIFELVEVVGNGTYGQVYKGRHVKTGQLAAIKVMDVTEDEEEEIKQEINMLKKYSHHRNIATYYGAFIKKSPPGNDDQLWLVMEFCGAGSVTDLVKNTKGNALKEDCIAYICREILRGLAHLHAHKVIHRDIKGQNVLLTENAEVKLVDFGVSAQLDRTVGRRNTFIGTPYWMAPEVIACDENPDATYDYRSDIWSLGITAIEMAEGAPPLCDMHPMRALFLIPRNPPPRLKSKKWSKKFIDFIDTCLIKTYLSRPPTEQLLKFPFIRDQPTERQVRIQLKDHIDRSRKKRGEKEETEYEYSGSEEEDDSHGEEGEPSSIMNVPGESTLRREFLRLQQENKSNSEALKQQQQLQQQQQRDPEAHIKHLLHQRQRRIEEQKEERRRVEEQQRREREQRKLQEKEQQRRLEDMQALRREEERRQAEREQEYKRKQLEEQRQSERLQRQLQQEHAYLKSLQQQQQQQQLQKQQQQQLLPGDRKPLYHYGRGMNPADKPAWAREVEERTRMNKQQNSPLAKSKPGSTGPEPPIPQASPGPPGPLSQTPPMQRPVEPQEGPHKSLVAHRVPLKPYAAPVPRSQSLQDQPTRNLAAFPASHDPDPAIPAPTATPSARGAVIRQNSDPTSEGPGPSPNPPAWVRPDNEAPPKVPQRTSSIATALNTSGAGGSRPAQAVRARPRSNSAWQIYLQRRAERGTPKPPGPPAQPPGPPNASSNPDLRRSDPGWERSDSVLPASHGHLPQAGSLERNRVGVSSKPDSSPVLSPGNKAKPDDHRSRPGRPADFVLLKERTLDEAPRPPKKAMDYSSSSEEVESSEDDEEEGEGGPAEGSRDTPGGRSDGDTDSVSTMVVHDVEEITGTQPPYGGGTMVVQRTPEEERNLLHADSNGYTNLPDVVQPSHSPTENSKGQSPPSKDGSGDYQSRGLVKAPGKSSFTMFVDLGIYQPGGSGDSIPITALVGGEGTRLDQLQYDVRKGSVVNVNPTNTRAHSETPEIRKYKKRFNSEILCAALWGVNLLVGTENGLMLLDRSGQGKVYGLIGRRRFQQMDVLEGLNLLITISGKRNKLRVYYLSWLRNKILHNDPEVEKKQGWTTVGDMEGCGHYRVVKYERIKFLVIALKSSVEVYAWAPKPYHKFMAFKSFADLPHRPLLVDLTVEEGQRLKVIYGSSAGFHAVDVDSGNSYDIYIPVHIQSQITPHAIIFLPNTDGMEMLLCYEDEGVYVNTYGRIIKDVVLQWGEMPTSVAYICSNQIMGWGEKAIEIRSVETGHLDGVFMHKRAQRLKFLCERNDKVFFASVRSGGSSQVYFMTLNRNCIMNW
Description: (§1) In the detection step, endogenous ADP and d2-labeled ADP compete for binding an anti-ADP monoclonal antibody labeled with Eu^3+ cryptate. A ratiometric fluorescent readout is used at 665 and 620 nm. […] Assays were run in Greiner low volume plates with a final reaction volume of 10 μl. […] Data were either reported as % inhibition at a single dose or as pIC50 values derived from dose response curves (pIC50 = -log[IC50]). Kinase selectivity profiling was performed by the International Centre for Kinase Profiling, MRC Protein Phosphorylation and Ubiquitylation Unit (141 kinases; Premier Screen, http://www.kinase-screen.mrc.ac.uk), using a [γ-^33P]ATP filter binding assay ([Bain et al., 2007]). Compounds were screened at 1 μM. For key hits, pIC50 values were then determined by HTRF as above. […] Stability in mouse and human liver microsomes was determined by Cyprotex.

TNIK/MAP4K7 = TNIK/MAP4K7 (Homo sapiens, UniProt Q9UKE5); experiment: HTRF Transcreener ADP kinase assay; format: biochemical
TNIK/MAP4K7, sequence (Q9UKE5 whole entry): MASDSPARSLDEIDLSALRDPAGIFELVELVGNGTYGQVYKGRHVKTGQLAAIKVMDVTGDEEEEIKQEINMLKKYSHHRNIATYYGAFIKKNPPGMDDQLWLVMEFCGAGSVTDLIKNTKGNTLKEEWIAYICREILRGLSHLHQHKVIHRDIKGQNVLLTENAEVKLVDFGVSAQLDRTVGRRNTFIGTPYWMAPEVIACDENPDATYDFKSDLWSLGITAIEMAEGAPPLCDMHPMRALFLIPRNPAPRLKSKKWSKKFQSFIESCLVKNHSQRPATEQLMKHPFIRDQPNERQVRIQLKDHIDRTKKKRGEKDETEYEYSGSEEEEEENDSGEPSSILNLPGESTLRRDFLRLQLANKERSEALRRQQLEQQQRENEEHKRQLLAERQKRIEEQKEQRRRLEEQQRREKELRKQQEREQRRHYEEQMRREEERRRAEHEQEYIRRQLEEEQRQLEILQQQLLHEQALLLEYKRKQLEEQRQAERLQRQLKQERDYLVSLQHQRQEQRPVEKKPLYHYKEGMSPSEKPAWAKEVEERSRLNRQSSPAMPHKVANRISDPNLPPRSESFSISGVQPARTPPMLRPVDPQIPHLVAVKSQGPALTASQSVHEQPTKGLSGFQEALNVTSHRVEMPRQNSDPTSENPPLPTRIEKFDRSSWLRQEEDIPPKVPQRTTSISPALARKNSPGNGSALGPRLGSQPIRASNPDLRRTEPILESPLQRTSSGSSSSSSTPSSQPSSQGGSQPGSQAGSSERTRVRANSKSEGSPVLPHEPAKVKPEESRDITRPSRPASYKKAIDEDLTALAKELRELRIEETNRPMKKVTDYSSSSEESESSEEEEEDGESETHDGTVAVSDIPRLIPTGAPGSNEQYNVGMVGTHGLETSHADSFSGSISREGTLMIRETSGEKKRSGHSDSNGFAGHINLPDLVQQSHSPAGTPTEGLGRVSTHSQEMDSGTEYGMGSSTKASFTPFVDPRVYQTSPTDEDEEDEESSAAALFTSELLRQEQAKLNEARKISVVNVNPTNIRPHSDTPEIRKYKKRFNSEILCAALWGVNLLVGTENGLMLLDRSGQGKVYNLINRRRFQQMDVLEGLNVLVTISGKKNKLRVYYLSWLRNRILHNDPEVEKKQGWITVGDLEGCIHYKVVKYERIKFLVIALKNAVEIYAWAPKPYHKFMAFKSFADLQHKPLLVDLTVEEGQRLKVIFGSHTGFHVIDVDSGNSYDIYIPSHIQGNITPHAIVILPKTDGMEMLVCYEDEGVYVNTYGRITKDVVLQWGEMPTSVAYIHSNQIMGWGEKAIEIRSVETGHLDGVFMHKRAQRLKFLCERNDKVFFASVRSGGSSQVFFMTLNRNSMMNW
Description: as §1

vCor.4U cardiomyocytes = experiment: CellTiter-Glo viability after oxidative stress (H2O2 or menadione); format: cell-based, human; conditions: for protection from death signal (CellTiter-Glo): vCor.4U, 10 μM compound, up to 200 μM H2O2 or 45 μM menadione
Description: vCor.4U cardiomyocytes were cultured, except where noted, on white (viability) or black (FLIPR) clear-bottom 384-well plates, treated for 1 hr with […] fibronectin (Sigma-Aldrich). To minimize batch to batch variation, thawed cells first were transferred from cryo-vials into sterile 250 mL flasks containing pre-warmed vCor.4U maintenance medium, for 3-5 d. The cells were then plated at 1000 well^-1 for viability assays or 5000 cells well^-1 for FLIPR experiments, all in 40 μl well^-1 of the maintenance medium. Cells were cultured in Axiogenesis complete medium followed by incomplete medium, were subjected to oxidative stress ± test compounds on day 3, and were assayed on day 4 (Figures 4D and 4E). Alternatively, complete medium was replaced on day 2 of culture with 40 μl of DMEM high Glucose (no FCS or pyruvate), followed by removal and replacement of 20 μl every 2 d for 10 d (Figures 4A–4C).
H2O2, menadione (Sigma-Aldrich), doxorubicin (Calbiochem), and C2-ceramide (N-acetyl-D-sphingosine) were used at the indicated concentrations. MAP4K4 inhibitors were serially diluted in DMSO, transferred to an intermediate plate using assay medium as a diluting agent, and added at a final concentration of 0.1% DMSO. MAP4K4 inhibitors were added to cultured cardiomyocytes 1 hr before the cell death inducers, except where noted, and remained present for the duration of the experiment.
For cell-based dose-response experiments, MAP4K4 inhibitors were prepared in 96-well polypropylene plates as serial dilutions in DMSO of 10 mM stock solutions. To a sterile 96-well intermediate plate, 1 μl of each well was added to 99 μl of medium, the samples were mixed, and 5 μl well^-1 from the intermediate plate were transferred to the cultured cells (final concentration, 0.1% DMSO; final top concentration of inhibitor, 10 μM). Assay plates were gently centrifuged then incubated for 1 hr at 37°C. The death triggers menadione, H2O2 and doxorubicin were prepared fresh on the day of treatment at 10x the final concentrations and 5 μl well^-1 were added as appropriate. Assay plates were gently centrifuged and then incubated at 37°C for the duration of treatment.
Assay plates were removed from the incubator, allowed to reach room temperature, inoculated with 20 μl well^-1 CTG reagent (Promega), and gently agitated for 30 min. Prior to adding CTG, 2 μl well^-1 of the culture medium was removed and placed into a white 384-well low volume plate for measurement of cardiac troponin release by AlphaLISA (below). Luminescence due to ATP, proportional to cell number, was captured on a PHERAstar Plus microplate reader (BMG Labtech). Normalized values were plotted against the log concentration of death signal or inhibitor, and a 4-parameter fit was used to identify IC50 and EC50, respectively.

[1] = IV PK (plasma concentrations after intravenous administration); format: in vivo, mice; conditions: IV PK (1 mg kg^−1); for Cmax / Vd / clearance / half-life: mouse, mice, plasma
Oral PK = format: in vivo, female CD-1 mice; conditions: for AUC(0-inf) / Cmax / Tmax / half-life: female, CD-1, mouse, mice, plasma
Description: In vivo pharmacokinetic profiling was performed in female CD-1 mice, using 3 animals per time point. First, 30% w/v Kleptose as excipient was dissolved in water and vortexed gently for several min. Next, 30 mg of the test compound was dissolved into 0.6 mL of DMSO, for a concentration of 50 mg ml^-1, and 4.5 mL of the Kleptose solution was added to 0.5 mL of the test compound solution. A precipitate forms, which re-dissolves over 2-5 min, leaving a clear or slightly hazy solution with a final concentration of 5 mg ml^-1. The dosing solution is used as soon as practicable, vortexing immediately prior to use. This amount was sufficient formulation for 25 doses of 200 μL (20 g mouse). Compounds were administered orally at 50 mg kg^-1, with terminal blood (plasma) sampling at 10 min, 30 min, 1 h, 2.5 h, 5 h, 10 h, and 20 h.

| Compound | remaining activity at 1 µM (PRAK) [%] | IC50 (MINK1/MAP4K6) [nM] | IC50 (TNIK/MAP4K7) [nM] | protection from death signal (CellTiter-Glo) (vCor.4U cardiomyocytes) | Cmax [1] [nM] | Vd [1] [L/kg] | clearance [1] [mL/min/kg] | half-life [1] [h] | AUC(0-inf) (Oral PK; Oral PK (50 mg kg^−1)) [µM·h] | Cmax (Oral PK; Oral PK (50 mg kg^−1)) [nM] | Tmax (Oral PK; Oral PK (50 mg kg^−1)) [h] | half-life (Oral PK; Oral PK (50 mg kg^−1)) [h] | also measured |
| --- | --- | --- | --- | --- | --- | --- | --- | --- | --- | --- | --- | --- | --- |
| O=C1Cc2c([nH]c3ccc(Br)cc23)-c2ccccc2N1 [Kenpaullone] | 95 | – | – | – | – | – | – | – | – | – | – | – | – |
| COCCOc1ccc(-c2cn(-c3ccccc3)c3nc[nH]c(=O)c23)cc1 [DMX-5804, 5-[4-(2-methoxy-ethoxy)-phenyl]-7-phenyl-3,7-dihydro-pyrrolo[2,3-d]pyrimidin-4-one] | 92 | 6.61 | 11 | substantiated | 1590 | 1.22 | 41.7 | 0.6 | 63.7 | 13800 | 1 | 1.8 | protection if given 1 h after oxidative stress (vCor.4U cardiomyocytes; 400 μM H2O2, CellTiter-Glo): partial protection; Cl, DMX-5804 versus F1386-0303 ([1]; ratio): 0.47; Cmax, DMX-5804 versus F1386-0303 ([1]; ratio): 0.49; Vd, DMX-5804 versus F1386-0303 ([1]; ratio): 1.16; t1/2, DMX-5804 versus F1386-0303 ([1]; ratio): 6.00; improvement of free plasma concentration over the initial inhibitor (Oral PK; 50 mg kg^−1 oral dose, versus F1386-0303): more than 80 fold; AUCinf, DMX-5804 versus F1386-0303 (Oral PK; ratio, Oral PK (50 mg kg^−1)): 29.48; Cmax, DMX-5804 versus F1386-0303 (Oral PK; ratio, Oral PK (50 mg kg^−1)): 46.94; Tmax, DMX-5804 versus F1386-0303 (Oral PK; ratio, Oral PK (50 mg kg^−1)): 1.00; t1/2, DMX-5804 versus F1386-0303 (Oral PK; ratio, Oral PK (50 mg kg^−1)): 0.49 |
| O=C1Nc2ccc(I)cc2/C1=C/c1cc(Br)c(O)c(Br)c1 [GW5074] | 93 | – | – | – | – | – | – | – | – | – | – | – | – |
| Nc1ncc(C(=O)NC2CN(C(=O)C3CC3)C2)c2ccc(-c3cccc(F)c3)nc12 [GNE-495] | – | – | – | – | – | – | – | – | – | – | – | – | residual activity (PRAK; 1 μM): 91% |
| Oc1ncnc2c1c(-c1ccccc1)cn2-c1ccccc1 [F1386-0303, 5,7-diphenyl-7H-pyrrolo[2,3-d]pyrimidin-4-ol] | 113 | 38 | 93.3 | virtually complete | 3260 | 1.05 | 88.8 | 0.1 | 2.16 | 295 | 1 | 3.7 | – |

From publication PMC6458995, “MAP4K4 Inhibition Promotes Survival of Human Stem Cell-Derived Cardiomyocytes and Reduces Infarct Size In Vivo” (Cell Stem Cell, 2019)
